In ChEMBL document CHEMBL1649217, “Emergence of Klebsiella pneumoniae ST258 with KPC-2 in Poland” (2009) one finds MIC data, which are given here for 14 compounds.

What all share (assay type): functional
For assay [1], the system named is Klebsiella pneumoniae. The assay is described as follows: Antimicrobial activity against Klebsiella pneumoniae isolate 2641/08 obtained from urine of patient with ischemic cardiomyopathy and several comorbidities by Etest.
In assay [2] the test system is Escherichia coli. The assay is described as follows: Antimicrobial activity against rifampicin-resistant Escherichia coli A15 transconjugant expressing beta-lactamase KPC-2/TEM-1 by Etest.
Assay [3] concerns Escherichia coli. Kind of assay: Antimicrobial activity against rifampicin-resistant Escherichia coli A15 transconjugant expressing beta-lactamase SHV-12 by Etest.
Assay [4] deals with Escherichia coli. The assay is described as follows: Antimicrobial activity against rifampicin-resistant Escherichia coli A15 by Etest.
The subject of assay [5] is Klebsiella pneumoniae. The assay is described as follows: Antimicrobial activity against Klebsiella pneumoniae isolate 2641/08 obtained from urine of patient with ischemic cardiomyopathy and several comorbidities by Etest in presence of beta-lactamase inhibitor clavulanic acid. Conditions: isolate 2641/08, Urine.
The test system of assay [6] is Escherichia coli. The assay is described as follows: Antimicrobial activity against rifampicin-resistant Escherichia coli A15 transconjugant expressing beta-lactamase KPC-2/TEM-1 by Etest in presence of beta-lactamase inhibitor clavulanic acid.
The test system of assay [7] is Escherichia coli. Kind of assay: Antimicrobial activity against rifampicin-resistant Escherichia coli A15 transconjugant expressing beta-lactamase SHV-12 by Etest in presence of beta-lactamase inhibitor clavulanic acid.
Assay [8] relates to Escherichia coli. Kind of assay: Antimicrobial activity against rifampicin-resistant Escherichia coli A15 by Etest in presence of beta-lactamase inhibitor clavulanic acid.
Assay [9] concerns Klebsiella pneumoniae. Kind of assay: Antimicrobial activity against Klebsiella pneumoniae isolate 2337/08 obtained from patient with ischemic cardiomyopathy and several comorbidities.
The test system of assay [10] is Klebsiella pneumoniae. The assay is described as follows: Antimicrobial activity against Klebsiella pneumoniae isolate 2641/08 obtained from urine of patient with ischemic cardiomyopathy and several comorbidities by Etest in presence of beta-lactamase inhibitor Tazobactam. To be noted: isolate 2641/08, Urine.
For assay [11], the system named is Escherichia coli. Kind of assay: Antimicrobial activity against rifampicin-resistant Escherichia coli A15 transconjugant expressing beta-lactamase KPC-2/TEM-1 by Etest in presence of beta-lactamase inhibitor Tazobactam.
In assay [12] the test system is Escherichia coli. The assay is described as follows: Antimicrobial activity against rifampicin-resistant Escherichia coli A15 transconjugant expressing beta-lactamase SHV-12 by Etest in presence of beta-lactamase inhibitor Tazobactam.
Assay [13] has as its system Escherichia coli. Kind of assay: Antimicrobial activity against rifampicin-resistant Escherichia coli A15 by Etest in presence of beta-lactamase inhibitor Tazobactam.

Values after ≈ are worked out from the molar mass of the structure shown.

For orientation: MIC means the least concentration at which growth counts as inhibited. As for `CO/N=C(\C(=O)N[C@@H]1C(=O)N2C(C(=O)[O-])=C(C[N+]3(C)CCCC3)CS[C@H]12)c1csc(N)n1`, the MIC against Klebsiella pneumoniae [1] (isolate 2641/08, Urine) was above 32 µg/mL; against Escherichia coli [2], 1.5 µg/mL (≈ 3.12 µM); in the assay with Escherichia coli [3] it was 0.5 µg/mL (≈ 1.04 µM); in the assay on Escherichia coli [4], 0.047 µg/mL (≈ 0.0978 µM).

`NCC[C@H](O)C(=O)N[C@@H]1C[C@H](N)[C@@H](O[C@H]2O[C@H](CN)[C@@H](O)[C@H](O)[C@H]2O)[C@H](O)[C@H]1O[C@H]1O[C@H](CO)[C@@H](O)[C@H](N)[C@H]1O` [AMIKACIN]: the MIC stood at 12 µg/mL (≈ 20.5 µM) in the assay on Klebsiella pneumoniae [1] (isolate 2641/08, Urine); 1.5 µg/mL (≈ 2.56 µM) with Escherichia coli [2]; 1 µg/mL (≈ 1.71 µM) in the assay on Escherichia coli [3]; 1 µg/mL (≈ 1.71 µM) against Escherichia coli [4].

As for `CC1(C)S[C@@H]2[C@H](NC(=O)[C@H](N)c3ccc(O)cc3)C(=O)N2[C@H]1C(=O)O` [AMOXICILLIN], the MIC in the assay with Klebsiella pneumoniae [5] is above 256 µg/mL; in the assay with Escherichia coli [6], 24 µg/mL; in the assay with Escherichia coli [7], 4 µg/mL; in the assay with Escherichia coli [8], 4 µg/mL.

Regarding `CC1(C)S[C@@H]2[C@H](NC(=O)[C@H](N)c3ccccc3)C(=O)N2[C@H]1C(=O)O` [AMPICILLIN], the MIC in the assay with Klebsiella pneumoniae [1] (isolate 2641/08, Urine) is above 256 µg/mL; against Escherichia coli [2], above 256 µg/mL; with Escherichia coli [3], above 256 µg/mL; with Escherichia coli [4], 3 µg/mL (≈ 8.59 µM).

Take `CO/N=C(\C(=O)N[C@@H]1C(=O)N2C(C(=O)O)=C(COC(C)=O)CS[C@H]12)c1csc(N)n1` [CEFOTAXIME]: the MIC in the assay with Klebsiella pneumoniae [1] (isolate 2641/08, Urine) was determined as 128 µg/mL (≈ 281 µM); against Escherichia coli [2], 2 µg/mL (≈ 4.39 µM); in the assay with Escherichia coli [3] it was 1.5 µg/mL (≈ 3.29 µM); in the assay with Escherichia coli [4], 0.047 µg/mL (≈ 0.103 µM).

`CC(C)(O/N=C(\C(=O)N[C@@H]1C(=O)N2C(C(=O)[O-])=C(C[n+]3ccccc3)CS[C@H]12)c1csc(N)n1)C(=O)O` [CEFTAZIDIME]: the MIC in the assay on Klebsiella pneumoniae [1] (isolate 2641/08, Urine) is above 256 µg/mL; in the assay on Escherichia coli [2], 3 µg/mL (≈ 5.49 µM); against Escherichia coli [3], 16 µg/mL (≈ 29.3 µM); with Escherichia coli [4] it was 0.25 µg/mL (≈ 0.457 µM).

In the assay on Klebsiella pneumoniae [1] (isolate 2641/08, Urine), `O=C(O)c1cn(C2CC2)c2cc(N3CCNCC3)c(F)cc2c1=O` [CIPROFLOXACIN] returned an MIC above 32 µg/mL.

Regarding `C[C@@H](O)[C@H]1C(=O)N2C(C(=O)O)=C(SCCNC=N)C[C@H]12` [IMIPENEM ANHYDROUS], the MIC is 2 µg/mL (≈ 6.68 µM) against Klebsiella pneumoniae [9]; 2 µg/mL (≈ 6.68 µM) in the assay with Klebsiella pneumoniae [1] (isolate 2641/08, Urine); 3 µg/mL (≈ 10 µM) in the assay on Escherichia coli [2]; 0.25 µg/mL (≈ 0.835 µM) in the assay with Escherichia coli [3]; 0.25 µg/mL (≈ 0.835 µM) against Escherichia coli [4].

As to `C[C@@H](O)[C@H]1C(=O)N2C(C(=O)O)=C(S[C@@H]3CN[C@H](C(=O)N(C)C)C3)[C@H](C)[C@H]12` [MEROPENEM], the MIC in the assay with Klebsiella pneumoniae [1] (isolate 2641/08, Urine) came out at 3 µg/mL (≈ 7.82 µM); in the assay with Escherichia coli [2], 0.75 µg/mL (≈ 1.96 µM); in the assay with Escherichia coli [3], 0.047 µg/mL (≈ 0.123 µM); against Escherichia coli [4], 0.032 µg/mL (≈ 0.0834 µM).

On to `CCN1CCN(C(=O)N[C@@H](C(=O)N[C@@H]2C(=O)N3[C@@H]2SC(C)(C)[C@@H]3C(=O)O)c2ccccc2)C(=O)C1=O` [PIPERACILLIN], for which the minimum inhibitory concentration (MIC) is above 256 µg/mL in the assay on Klebsiella pneumoniae [1] (isolate 2641/08, Urine); 96 µg/mL (≈ 185 µM) against Escherichia coli [2]; 32 µg/mL (≈ 61.8 µM) in the assay on Escherichia coli [3]; 1.5 µg/mL (≈ 2.9 µM) against Escherichia coli [4]; above 256 µg/mL in the assay with Klebsiella pneumoniae [10]; 48 µg/mL with Escherichia coli [11]. Further, the MIC in the assay with Escherichia coli [12] and in the assay on Escherichia coli [13] was 1 µg/mL in each case.

Turning to `CN(C)[C@@H]1C(O)=C(C(N)=O)C(=O)[C@@]2(O)C(O)=C3C(=O)c4c(O)cccc4[C@@](C)(O)[C@H]3C[C@@H]12` [TETRACYCLINE], the MIC turned out to be 32 µg/mL (≈ 72 µM) against Klebsiella pneumoniae [1] (isolate 2641/08, Urine); 2 µg/mL (≈ 4.5 µM) in the assay with Escherichia coli [2]; 1.5 µg/mL (≈ 3.38 µM) against Escherichia coli [3]; 2 µg/mL (≈ 4.5 µM) in the assay with Escherichia coli [4].

`CN(C)c1cc(NC(=O)CNC(C)(C)C)c(O)c2c1C[C@H]1C[C@H]3[C@H](N(C)C)C(O)=C(C(N)=O)C(=O)[C@@]3(O)C(O)=C1C2=O` [TIGECYCLINE]: the MIC in the assay with Klebsiella pneumoniae [1] (isolate 2641/08, Urine) amounted to 3 µg/mL (≈ 5.12 µM); in the assay with Escherichia coli [2], 0.38 µg/mL (≈ 0.649 µM); against Escherichia coli [3], 0.38 µg/mL (≈ 0.649 µM); against Escherichia coli [4], 0.38 µg/mL (≈ 0.649 µM).

For the compound COLISTIN, the MIC is 0.38 µg/mL in the assay with Klebsiella pneumoniae [1], 0.25 µg/mL with Escherichia coli [2], 0.19 µg/mL in the assay with Escherichia coli [3] and 0.25 µg/mL in the assay with Escherichia coli [4].

Regarding GENTAMICIN, the MIC with Klebsiella pneumoniae [1] stood at 1 µg/mL; against Escherichia coli [2] it was 0.25 µg/mL; in the assay with Escherichia coli [3], 0.19 µg/mL; against Escherichia coli [4] it was 0.19 µg/mL.
